The source of these data is patent US20260256909A1, “COMBINATION OF A BTN3A ACTIVATING ANTIBODY, A BCL2 INHIBITOR AND HYPOMETHYLATING AGENT FOR USE IN TREATING CANCER” (Imcheck Therapeutics, priority 2022, published 2026).

Read-outs that look alike come from different tables or passages of the source.

A word on the EC50: it is the concentration that produces a half-maximal response.

Holding throughout (format): cell-based, human
Experiment [1] has as its system Vγ9Vδ2 T cells. Description: Survival of Vγ9Vδ2 T cells in HD-PBMC (Caspase3/7 and dead cell marker, flow cytometry). The settings on record: HD-PBMC, 48 h; for CC50: in presence of isotype control (hIgG1S 1 μg/mL). As to the method: The effect of ICT01 on the survival of Vγ9Vδ2 T cells upon treatment with Bcl-2 family member inhibitors was assessed in Peripheral Blood Mononuclear Cells from Healthy Donors (HD-PBMC) using the apoptotic marker Caspase3/7 and a dead cell marker in flow cytometry analysis.
Peripheral Blood Mononuclear Cells (PBMC) were isolated by Ficoll density gradient centrifugation of peripheral blood (EDTA-buffy coats) from healthy donors (HD, n=4-6), cultured in PBMC medium (RPMI 1640 Medium supplemented with 10% Fetal Bovine Serum (FBS), 1% Penicillin/Streptomycin and 1 mM Sodium Pyruvate) and treated with ICT01 or its isotype control (hIgG1S) used at 1 μg/mL in the presence or absence of increasing concentrations of Venetoclax (0-0.1 μM), 5-Azacytidine (0-0.4 μM) or the combination, or ABT-737 (0-1.875 μM), Navitoclax (0-1.875 μM) or MIK665 (0-1.875 μM). Cells were harvested on day 2, centrifuged at 1800 rpm for 5 minutes and then incubated 10 minutes at room temperature (RT) with 25 μl of FcR blocking reagent (Miltenyi Biotec) before adding 25 μL of the following antibody mix prepared in PBS+2% FBS+2 mM EDTA (FACS buffer): anti-CD4-BUV395, CD56-BV421, Vd2-PE, CD3-PE-CF594 and CD8-A700 antibodies for the identification of immune subsets, anti-CD25-BV650 and CD69-APC antibodies were added to monitor activation status of Vγ9Vδ2 T cells, and a viability marker (LIVE/DEAD™ Fixable Dead Cell Stain) was added to distinguish live from dead cells. Cells were incubated 20 minutes at room temperature (RT) and washed 2 times with FACS buffer. A Caspase3/7 Green detection reagent (ThermoFisher) was added to determine apoptosis and cells were incubated for 30 minutes at RT before flow cytometry analysis.
In a similar experiment, freshly isolated PBMC were stimulated with ICT01 or its isotype control hIgG1S for 1 day prior to a 2 day-treatment with Venetoclax (FIG. 3a). The number of live Vγ9Vδ2 T cells was assessed by flow cytometry at the end of the incubation time.
Background: A flow cytometer gives signals particle by particle.

The test system of experiment [2] is KG1a AML cells. Nature of the experiment: Killing of KG1a AML cells in co-culture with HD-PBMC (flow cytometry). The note with it: for KG1a cell death / reduction of living KG1a cells as compared to control: alone or with ICT01 0.1 μg/mL, HD-PBMC ratio 5:1, 2 days. On the procedure: A) Sensitivity of KG1a cell line to Venetoclax, 5-Azacytidine or the combination. […] N=2 experiments. B) Mean±SEM relative number of Live KG1a AML cells monitored by flow cytometry after 3 days of co-culture with HD-PBMC (E:T ratio 25:1) treated with ICT01 (black) or its isotype control (hIgG1S, light grey) at 0.1 or 1 μg/mL. N=6, each dot represents one healthy donor. C) Schematic representation of treatment schedule for killing of KG1a AML cells by HD-PBMC. D) Relative number of Live KG1a AML cells (Mean±SEM) (left) and Frequency of Live KG1a AML cell relative to no Venetoclax or 5-Azacytidine treatment (Mean±SEM) (right) after 3 days of co-culture with HD-PBMC in presence of ICT01 (black) or its isotype control (hIgG1S, light grey) and treatment with Venetoclax, 5-Azacytidine or the combination. N=6, each dot represents one healthy donor, * p<0.05, Wilcoxon test.
KG1a cells were co-cultured with HD-PBMC at ratio 5:1 in presence of m20.1 or isotype control (0.1 μg/mL). After 6 hrs, indicated concentrations of Venetoclax, 5-Azacytidine or the combination were added to the culture. Relative number of live KG1a was monitored after 48 hrs by flow cytometry. […] N=6, each dot represents one healthy donor, * p<0.05, ** p<0.01, *** p<0.001, **** p<0.0001, 2 way ANOVA.
(§1) KG1a or MOLM14 AML cell lines were co-cultured with HD-PBMC at ratio 5:1 in presence of ICT01 or isotype control (0.1 μg/mL). After 6 hrs, indicated concentrations of ABT-737, Navitoclax or MIK665 were added to the culture. A) Relative numbers of live KG1a cells (Mean±SEM) after 2 days of co-culture with HD-PBMC in presence of ICT01 (black) or its isotype control hIgG1S (light grey) and treatment with indicated concentration of ABT-737. B) Relative numbers of live KG1a cells (Mean±SEM) after 2 days of co-culture with HD-PBMC in presence of ICT01 (black) or its isotype control hIgG1S (light grey) and treatment with indicated concentration of Navitoclax. C) Relative numbers of live MOLM14 cells (Mean±SEM) after 2 days of co-culture with HD-PBMC in presence of ICT01 (black) or its isotype control hIgG1S (light grey) and treatment with indicated concentration of MIK665. N=6 HD, each dot represents one healthy donor, * p<0.05, 2 way ANOVA.
The effect of Venetoclax and 5-Azacytidine on anti-BTN3A antibodies-induced killing of AML cell lines by Vγ9Vδ2 T cells was assessed by measuring the relative number of surviving target cells in a HD-PBMC-AML cell co-culture using flow cytometry.
Then, KG1a AML cells were stained with CellTrace CFSE Proliferation dye (ThermoFisher) to allow for specific detection by flow cytometry, counted, put into a co-culture with thawed HD-PBMC and treated with the anti-BTN3A mAbs ICT01 or m20.1 or their respective isotype controls (hIgG1S or mIgG1) in PBMC medium (RPMI 1640 Medium supplemented with 10% Fetal Bovine Serum (FBS) and 1 mM Sodium Pyruvate). On day one of culture, increasing concentrations of Venetoclax (0-0.4 μM), 5-Azacytidine (0-0.4 μM) or the combination were added. Cells were harvested on day 3 of co-culture, centrifuged at 1800 rpm for 5 minutes and then incubated 10 minutes at room temperature (RT) with 25 μl of FcR blocking reagent (Miltenyi Biotec) before adding 25 μL of the following antibody mix prepared in PBS+2% FBS+2 mM EDTA (FACS buffer): anti-CD56-BV421, CD19-BV421, CD14-BV785, Tyb-PE and CD3-AF700 antibodies for the identification of immune subsets, and a viability marker (LIVE/DEAD™ Fixable Dead Cell Stain) was added to distinguish live and dead cells. Cells were incubated 20 minutes at room temperature, washed once in FACS buffer and once in AnnexinV staining buffer. An AnnexinV-APC probe mixed with CountBright Absolute Counting Beads (Invitrogen) was added to determine apoptosis and relative cell numbers, followed by 15 minutes incubation at RT before flow cytometry analysis. […]

The subject of experiment [3] is MOLM14 cells. Nature of the experiment: Killing of MOLM14 AML cells in co-culture with HD-PBMC (flow cytometry). The note with it: alone or with ICT01 0.1 μg/mL, HD-PBMC ratio 5:1, 2 days. As to the method:
as §1
The effect of the three Bcl-2 family member inhibitors ABT-737, Navitoclax and MIK665, on ICT01-induced killing of AML cell lines by Vγ9Vδ2 T cells was assessed by measuring the relative number of surviving target cells in a HD-PBMC-AML cells co-culture using flow cytometry.
For assays using ABT-737 or Navitoclax, KG1a cells were used. […] Therefore, MOLM14 cells, which express MCL-1, were used in killing assays assessing the activity of ICT01 combined with MIK665.

Where [4] appears, read: in presence of ICT01 (1 μg/mL), read-out: EC50 of Vγ9Vδ2 T cell death.
The mark [5] stands for this setting: Homo sapiens, T-cell, read-out: EC50 of Vγ9Vδ2 T cell death.
[6] abbreviates: Homo sapiens, T-cell, inhibitor alone (FIG. 2a), read-out: EC50 of apoptosis and death of Vγ9Vδ2 T cells.
Where [7] appears, read: Bcl-2 family inhibitor at 0.25 μM.
Setting [8] is: Bcl-2 family inhibitor at 0.5 μM.

As for `CN(C)CC[C@H](CSc1ccccc1)Nc1ccc(S(=O)(=O)NC(=O)c2ccc(N3CCN(Cc4ccccc4-c4ccc(Cl)cc4)CC3)cc2)cc1[N+](=O)[O-]` [ABT-737], the EC50 was found to be 460 nM in experiment [1] (setting [4]) and 240 nM in experiment [1] (setting [6]). Also, the CC50 in experiment [1] (setting [5]) worked out at 230 nM. Also, the “KG1a cell death / reduction of living KG1a cells as compared to control” value is ~ 34% in experiment [2] (setting [7]) and ~ 54% in experiment [2] (setting [8]).

As for `COc1ccccc1-c1nccc(COc2ccccc2C[C@@H](Oc2ncnc3sc(-c4ccc(F)cc4)c(-c4ccc(OCCN5CCN(C)CC5)c(Cl)c4C)c23)C(=O)O)n1` [MIK665, (R)-2-((5-(3-chloro-2-methyl-4-(2-(4-methylpiperazin-1-yl)ethoxy)phenyl)-6-(4-fluorophenyl)thieno[2,3-d]pyrimidin-4-yl)oxy)-3-(2-((2-(2-methoxyphenyl)pyrimidin-4-yl)methoxy)phenyl)propanoic acid], the EC50 amounted to 780 nM in experiment [1] (setting [4]) and 240 nM in experiment [1] (setting [6]). Moreover, the CC50 in experiment [1] (setting [5]) was determined as 240 nM. Also, the “sensitivity of KG1a to MIK665 treatment” value in experiment [2] (cell line does not express MCL-1) was “completely resistant”. Besides, the “cell death / reduction of living MOLM14 cells as compared to control” value in experiment [3] (MIK665 at 0.025 μM) is recorded as ~ 52%; in experiment [3] (MIK665 at 0.05 μM), ~ 72%.

Regarding `CC1(C)CCC(c2ccc(Cl)cc2)=C(CN2CCN(c3ccc(C(=O)NS(=O)(=O)c4ccc(N[C@H](CCN5CCOCC5)CSc5ccccc5)c(S(=O)(=O)C(F)(F)F)c4)cc3)CC2)C1` [Navitoclax, 4-[4-[[2-(4-chlorophenyl)-5,5-dimethylcyclohexen-1-yl]methyl]piperazin-1-yl]-N-[4-[[(2R)-4-morpholin-4-yl-1-phenylsulfanylbutan-2-yl]amino]-3-(trifluoromethylsulfonyl)phenyl]sulfonylbenzamide], the results for the EC50 in experiment [1] (setting [4]) and in experiment [1] (setting [6]) were 200 nM and 160 nM, respectively. In addition, the CC50 in experiment [1] (setting [5]) turned out to be 160 nM. The “KG1a cell death / reduction of living KG1a cells as compared to control” value in experiment [2] (setting [7]) was ~ 51%; in experiment [2] (setting [8]), ~ 71%.
